Results as given in article PMC12621175, “Scaffold Fusion and SAR Transfer with a Chemical Language Model Generates Novel Liver X Receptor Modulators” (Journal of Medicinal Chemistry, 2025).
Entries after “also recorded” stand apart in the source; their conditions may differ.

Experiments:
Format in all cases: cell-based
RORγ (NR1F3) = target: T1, RORγ (NR1F3) (Homo sapiens, UniProt P51449); experiment: Gal4-RORγ hybrid reporter gene assay (off-target profiling); settings: compared with T0901317
T1 construct: coding for the hinge region, and LBD of the canonical isoform of the respective nuclear receptor; expressed in transfected cells; host or cells: HEK293T
T1 sequence (P51449 269-508 limits assumed): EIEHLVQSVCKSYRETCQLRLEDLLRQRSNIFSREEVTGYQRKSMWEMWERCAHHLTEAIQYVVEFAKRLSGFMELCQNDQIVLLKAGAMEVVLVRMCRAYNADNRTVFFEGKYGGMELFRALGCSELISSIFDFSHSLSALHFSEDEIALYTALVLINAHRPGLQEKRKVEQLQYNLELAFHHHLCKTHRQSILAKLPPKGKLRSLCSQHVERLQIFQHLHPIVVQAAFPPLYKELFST
Excerpt: (§1) For the hybrid reporter gene assays, the previously reported Gal4-fusion receptor plasmids pFA-CMV-hRORα-LBD, pFA-CMV-hRORβ-LBD, pFA-CMV-hRORγ-LBD, pFA-CMV-hLXRα-LBD, pFA-CMV-hLXRβ-LBD, pFA-CMV-hFXR-LBD, pFA-CMV-hPXR-LBD, and pFA-CMV-hRXRα-LBD, coding for the hinge region, and LBD of the canonical isoform of the respective nuclear receptor were used. pFR-Luc (Stratagene) was used as the reporter plasmid, and pRL-SV40 (Promega) was used in all assays for the normalization of transfection efficiency and cell growth. pECE-SV40-Gal4-VP16 was a gift from Lea Sistonen (Addgene plasmid #71728). The LXR-responsive reporter ABCA1-pGL3 was used for the full-length reporter gene assay.
(§2) The day before transfection, HEK293T cells were seeded in 96-well plates (4 × 10^4 cells/well). Before transfection, the medium was changed to Opti-MEM without any supplements. […] Luminescence was measured with a Spark 10 M luminometer (Tecan Deutschland GmbH). […] EC50/IC50 values and the standard errors thereof were calculated with the mean fold activation values by OriginPro, Version 2025 (OriginLab Corporation, Northampton, MA, USA), fitting a dose–response curve with a variable Hill slope (Levenberg–Marquardt algorithm). […]

PXR (NR1I2) = target: T2, PXR (NR1I2) (Homo sapiens, UniProt O75469); experiment: Gal4-PXR hybrid reporter gene assay (off-target profiling); settings: compared with T0901317
T2 construct: coding for the hinge region, and LBD of the canonical isoform of the respective nuclear receptor; expressed in transfected cells; host or cells: HEK293T
T2 sequence (O75469 146-433 limits assumed): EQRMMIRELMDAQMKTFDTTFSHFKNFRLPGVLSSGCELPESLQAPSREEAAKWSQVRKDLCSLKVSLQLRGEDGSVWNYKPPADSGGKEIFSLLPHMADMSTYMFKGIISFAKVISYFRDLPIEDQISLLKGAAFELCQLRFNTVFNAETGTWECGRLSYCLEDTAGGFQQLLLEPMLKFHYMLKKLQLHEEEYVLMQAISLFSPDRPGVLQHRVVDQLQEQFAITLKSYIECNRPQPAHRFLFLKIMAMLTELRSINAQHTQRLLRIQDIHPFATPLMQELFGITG
Excerpt: as §1, §2

RXRα = target: T3, RXRα (Homo sapiens, UniProt P19793); experiment: Gal4-RXRα hybrid reporter gene assay (control); settings: 30 μM; alone and in competition with bexarotene 1 μM
T3 construct: coding for the hinge region, and LBD of the canonical isoform of the respective nuclear receptor; expressed in transfected cells; host or cells: HEK293T
T3 sequence (P19793 227-458 limits assumed): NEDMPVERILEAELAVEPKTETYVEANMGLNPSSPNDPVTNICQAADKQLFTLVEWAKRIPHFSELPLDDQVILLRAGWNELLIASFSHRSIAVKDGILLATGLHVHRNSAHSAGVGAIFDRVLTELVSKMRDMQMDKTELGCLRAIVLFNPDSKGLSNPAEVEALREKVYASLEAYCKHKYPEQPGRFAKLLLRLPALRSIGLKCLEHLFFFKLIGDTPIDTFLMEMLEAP
Excerpt: as §1
as §2, with “cells/well).” for “cells/well). Before transfection, the medium was changed to Opti-MEM without any supplements.”
(§3) mediated inhibition of the LXR/RXR heterodimer. […] (c) Quantification of LXR expression on mRNA level in HEK293T and HepG2 cell lines using qRT -PCR. Expression levels were calculated according to the 2 -ΔCt method relative to GAPDH. […]

Gal4-VP16 = Gal4-VP16 control experiment (ligand-independent transcriptional activator); settings: 30 μM; vs 0.1% DMSO
Excerpt: as §1
as §2, with “cells/well).” for “cells/well). Before transfection, the medium was changed to Opti-MEM without any supplements.”
as §3

Row | Compound | RORγ activity (RORγ (NR1F3)) | PXR activity (PXR (NR1I2)) | RXR modulation (RXRα) | influence on Gal4-VP16-mediated luciferase reporter expression (Gal4-VP16)
1 | CCN(C(=O)c1ccccc1)c1ccc(C(O)(C(F)(F)F)C(F)(F)F)cc1 [Compound 1, N-Ethyl-N-(4-[1,1,1,3,3,3-hexafluoro-2-hydroxypropan-2-yl]phenyl)benzamide] | reduced activity; also recorded: weaker inverse RORγ agonist | reduced activity; also recorded: PXR agonism was retained |  | 
2 | CS(=O)(=O)c1cccc(-c2ccc(CN(Cc3cccc(C(F)(F)F)c3Cl)CC(c3ccccc3)c3ccccc3)cc2)c1 [Compound 3, N-(2-Chloro-3-[trifluoromethyl]benzyl)-N-([3′-{methylsulfonyl}-{1,1′-biphenyl}-4-yl]methyl)-2,2-diphenylethan-1-amine] |  |  | neither activated RXR nor competed with literature RXR agonist bexarotene | no influence
